In ChEMBL document CHEMBL1130745, “Inhibitory effect and action mechanism of sesquiterpenes from Zedoariae Rhizoma on D-galactosamine/lipopolysaccharide-induced liver injury” (1998):

Legend:
Format in all cases: functional
[1] = system: Mus musculus; experiment: In vivo inhibitory activity on the increase of serum GPT induced by D-GalN / LPS (liver injury) in mice at 50 mg/kg peroral administration; conditions: route oral
[2] = species on record: Rattus norvegicus; experiment: In vitro hepatocytotoxicity induced by D-GalN in primary cultured rat hepatocytes at a concentration of 10e-4 M; conditions: Hepatocyte
[3] = species on record: Mus musculus; experiment: In vitro inhibitory activity on the production of nitric oxide (NO) induced by LPS in mouse peritoneal macrophages at a concentration of 10e-4 M
[4] = system: Mus musculus; experiment: In vivo inhibitory activity on the increase of serum GOT induced by D-GalN / LPS (liver injury) in mice at 50 mg/kg peroral administration; conditions: route oral
[5] = system: Mus musculus; experiment: In vivo inhibitory activity on the increase of serum GOT induced by D-GalN / LPS (liver injury) in mice at 20 mg/kg peroral administration; conditions: route oral

Row | Compound | inhibition in vivo at 50 mg/kg [1] [%] | inhibition at 100 µM [2] [%] | inhibition at 100 µM [3] [%] | inhibition in vivo at 50 mg/kg [4] [%] | inhibition in vivo at 20 mg/kg [5] [%]
1 | C/C1=C\CC[C@H](C)C(=O)C[C@@H](C(C)C)C(=O)C1 | 76.6 | 77.1 | 2 | 74.6 | –
2 | CC(C)=C1CC(=O)[C@@H](C)CC/C=C(\C)CC1=O | 49.7 | -6.3 | 53.7 | 46.2 | –
3 | CC(=O)CC[C@H]1[C@@H]2CC(=C(C)C)C(=O)C[C@]12C | 90.1 | -12.2 | 13 | 88 | –
4 | C=C1CC(=O)C(=C(C)C)CC2[C@H]1CC[C@]2(C)O (some centres undefined) | 26.7 | -5.2 | 54.5 | 22.3 | –
5 | C/C1=C\CC[C@@H](C)C(=O)C[C@@H](C(C)C)C(=O)C1 | 59.3 | 44.6 | 41.9 | 58.4 | –
6 | CC(C)=C1C/C=C(\C)CC/C=C(\C)CC1=O | 82.9 | 59.8 | 46.8 | 78.1 | –
7 | CC1=CC(=O)C(=C(C)C)CC2[C@@](C)(O)CC[C@]12O (some centres undefined) | 88 | -41.5 | -8.8 | 89.1 | –
8 | C/C1=C\CC[C@]2(C)O[C@H]2C(=O)c2c(C)coc2C1 | 39.5 | -7.9 | -5 | 35.4 | –
9 | CC(C)=C1CC2[C@@H](CC[C@]2(C)O)[C@](C)(O)CC1=O (some centres undefined) | 60.7 | -35.6 | 31.7 | 54.7 | –
10 | C/C1=C\C/C(=C(/C)CO)C(=O)C/C(C)=C/CC1 | 36.1 | -21.7 | -14.6 | 21.5 | –
11 | CC1=CC2(O)O[C@@]3(CC2=C(C)C)[C@@H](C)CC[C@@H]13 (single isomer, unassigned) [CURCUMENOL] | 50.7 | 25.1 | 50.4 | 53.3 | –
12 | C[C@]12CCC(=O)C=C1CCC1[C@@H]2[C@@H](O)C[C@@]2(C)[C@H]1CC[C@]2(O)C(=O)CO (single isomer, unassigned) [HYDROCORTISONE] | 99 | – | 92.6 | – | 98.3
13 | C=C1CC2(O)O[C@@]3(CC2=C(C)C)[C@@H](C)CC[C@@H]13 (single isomer, unassigned) [ISOCURCUMENOL] | 77.3 | 14.2 | 36.5 | 80.2 | –
14 | COc1cc(/C=C/C(=O)CC(=O)/C=C/c2ccc(O)c(OC)c2)ccc1O [CURCUMIN] | 71.2 | -44.3 | 98.8 | 63.4 | –
15 | C/C1=C\Cc2c(C)coc2C/C(C)=C/CC1 [ISOFURANODIENE] | 72.9 | -0.5 | 96.1 | 74.3 | –
